# Results taken from EP0170019A1, “Carbapenems having an ether group at position 4” (F. HOFFMANN-LA ROCHE & CO. Aktiengesellschaft, priority 1984, dated 1986).
# How the values were obtained:
# Assay in all cases: Minimal inhibitory concentration (MHK) on DST agar
# Assay type in all cases: cell-based
# Prot. mirabilis 29H = conditions: Proteus mirabilis
# Text: (§1) Die minimalen Hemmkonzentrationen (MHK) der (4S,5S,6S)--6-[(R)-1-Hydroxyäthyl]-4-methoxy-7-oxo -1-azabicyclo-[3.2.0]hept-2-en-2-carbonsäure (Verbindung A), der (4R,5S,-6S)-6-[(R)-1-Hydroxyäthyl]-3-[[(S)-1-(1-iminoäthyl) -3-pyrrolidinyl]thio]-4-methoxy-7-oxo -1-azabicyclo[3.2.0]-hept-2-en -2-carbonsäure (Verbindung B), der (4R.5S,6S)-4--Aethoxy-6-[(R)-1-hydroxyäthyl]-3-[(S) -3-pyrrolidinyl- thio]-7-oxo-1-azabicyclo[3.2.0]hept-2-en -2-carbonsäure (Verbindung C) und der (4R,5S,6S)-4-Aethoxy-6-[(R)-1--hydroxyäthyl]-3-[[(S)-1 -(1-iminoäthyl)-3-pyrrolidinyl]-thio]-7-oxo-1 -azabicyclo[3.2.0]hept-2-en-2-carbonsäure (Verbindung D) gegen eine Reihe pathogener Mikroorganismen wurden auf DST-Agar (Diagnostic Sensitivity Test Agar) bestimmt. Die erhaltenen Resultate sind in der nachfolgenden Tabelle aufgeführt:
# (§2) Die ß-Lactamase produzierenden Organismen sind mit einem ^* bezeichnet.
# E. coli 25922 = conditions: Escherichia coli
# Text: as §1, §2
# [1] = tested on: Serratia marcescens 803/15*; conditions: Serratia marcescens 803/15* (ß-Lactamase producing)
# Text: as §1, §2
# [2] = tested on: Enterobacter cloacae 15M*; conditions: Enterobacter cloacae 15M* (ß-Lactamase producing)
# Text: as §1, §2
# Strept. faecalis 6 = conditions: Enterococcus faecalis
# Text: as §1, §2
# E. coli 1346 = conditions: Escherichia coli
# Text: as §1, §2
# E. coli TEM 1* = conditions: Escherichia coli, read-out: MHK
# Text: as §1, §2
# Klebs. aerogenes 1082E* = conditions: Klebsiella aerogenes, Klebs. aerogenes 1082E* (ß-Lactamase producing)
# Text: as §1, §2
# Klebs. pneumoniae 418* = conditions: Klebsiella pneumoniae, Klebs. pneumoniae 418* (ß-Lactamase producing)
# Text: as §1, §2
# Pseudomonas aer. BA* = Pseudomonas aer. BA* (ß-Lactamase producing)
# Text: as §1, §2
# E. coli 1527 E* = conditions: Escherichia coli, E. coli 1527 E* (ß-Lactamase producing)
# Text: as §1, §2
# Staph. aureus 6538 = conditions: Staphylococcus aureus
# Text: as §1, §2
# Staph. aureus 887* = conditions: Staphylococcus aureus, Staph. aureus 887* (ß-Lactamase producing)
# Text: as §1, §2
# [3] = tested on: Serratia marcescens 69438
# Text: as §1, §2
# Prot. mirabilis 2117* = conditions: Proteus mirabilis, Prot. mirabilis 2117* (ß-Lactamase producing)
# Text: as §1, §2
# Pseudomonas aer. 1559E* = Pseudomonas aer. 1559E* (ß-Lactamase producing)
# Text: as §1, §2
# [4] = tested on: Acinetobacter anitr. 5I-156; conditions: ANITR.5I156
# Text: as §1, §2
# [5] = tested on: Enterobacter cloacae 908*; conditions: Enterobacter cloacae 908* (ß-Lactamase producing)
# Text: as §1, §2
# Prot. vulgaris 1028* = conditions: Proteus vulgaris, Prot. vulgaris 1028* (ß-Lactamase producing)
# Text: as §1, §2
# Salmonella typh. BA = tested on: Salmonella typh. BA
# Text: as §1, §2
Compound,MIC (Prot. mirabilis 29H) [µg/mL],MIC (E. coli 25922) [µg/mL],MIC [1] [µg/mL],MIC [2] [µg/mL],MIC (Strept. faecalis 6) [µg/mL],MIC (E. coli 1346) [µg/mL],MIC (E. coli TEM 1*) [µg/mL],MIC (Klebs. aerogenes 1082E*) [µg/mL],MIC (Klebs. pneumoniae 418*) [µg/mL],MIC (Pseudomonas aer. BA*) [µg/mL],MIC (E. coli 1527 E*) [µg/mL],MIC (Staph. aureus 6538) [µg/mL],MIC (Staph. aureus 887*) [µg/mL],MIC [3] [µg/mL],MIC (Prot. mirabilis 2117*) [µg/mL],MIC (Pseudomonas aer. 1559E*) [µg/mL],MIC [4] [µg/mL],MIC [5] [µg/mL],MIC (Prot. vulgaris 1028*) [µg/mL],MIC (Salmonella typh. BA) [µg/mL]
"CO[C@H]1C=C(C(=O)O)N2C(=O)[C@H]([C@@H](C)O)[C@@H]12 [Verbindung A, (4S,5S,6S)--6-[(R)-1-Hydroxyäthyl]-4-methoxy-7-oxo-1-azabicyclo-[3.2.0]hept-2-en-2-carbonsäure]",8,1,2,1,32,0.5,1,1,0.5,32,0.5,0.5,1,2,4,> 32,2,1,4,1
"CO[C@H]1C(S[C@H]2CCN(C(C)=N)C2)=C(C(=O)O)N2C(=O)[C@H]([C@@H](C)O)[C@@H]12 [Verbindung B, (4R,5S,-6S)-6-[(R)-1-Hydroxyäthyl]-3-[[(S)-1-(1-iminoäthyl) -3-pyrrolidinyl]thio]-4-methoxy-7-oxo-1-azabicyclo[3.2.0]-hept-2-en-2-carbonsäure]",25,0.8,3.1,0.8,12.5,0.4,–,0.8,0.4,25,0.4,0.1,0.2,3.1,12.5,25,0.4,0.8,12.5,0.8
"CCO[C@H]1C(S[C@H]2CCNC2)=C(C(=O)O)N2C(=O)[C@H]([C@@H](C)O)[C@@H]12 [Verbindung C, (4R.5S,6S)-4--Aethoxy-6-[(R)-1-hydroxyäthyl]-3-[(S) -3-pyrrolidinyl-thio]-7-oxo-1-azabicyclo[3.2.0]hept-2-en-2-carbonsäure]",32,0.5,4,1,32,0.5,0.5,2,2,32,0.25,0.25,0.5,8,16,64,1,1,32,0.5
"CCO[C@H]1C(S[C@H]2CCN(C(C)=N)C2)=C(C(=O)O)N2C(=O)[C@H]([C@@H](C)O)[C@@H]12 [Verbindung D, (4R,5S,6S)-4-Aethoxy-6-[(R)-1--hydroxyäthyl]-3-[[(S)-1-(1-iminoäthyl)-3-pyrrolidinyl]-thio]-7-oxo-1-azabicyclo[3.2.0]hept-2-en-2-carbonsäure]",32,2,8,4,32,1,0.5,2,2,64,1,0.25,0.5,8,16,64,2,4,16,2
